According to patent publication US20240246942A1, “KINASE INHIBITORS FOR THE TREATMENT OF NEURODEGENERATIVE DISEASES” (priority 2020, published 2024):

Key:
Assay in all cases: biochemical
[1] = biological target: T1, panel of 374 wild-type kinases (Homo sapiens, UniProt P09619); conditions: read-out: % Enzyme Activity (relative to DMSO controls), kinase PDGFRb
T1 construct: purchased Reaction Biology Corporation

[2] = biological target: T2, panel of 374 wild-type kinases (Homo sapiens, UniProt O00238); conditions: read-out: % Enzyme Activity (relative to DMSO controls), ALK6/BMPR1B
T2 construct: purchased Reaction Biology Corporation

[3] = biological target: T3, panel of 374 wild-type kinases (Homo sapiens, UniProt O75385); conditions: read-out: % Enzyme Activity (relative to DMSO controls), kinase ULK1
T3 construct: purchased Reaction Biology Corporation
T3 sequence (O75385 1-1050): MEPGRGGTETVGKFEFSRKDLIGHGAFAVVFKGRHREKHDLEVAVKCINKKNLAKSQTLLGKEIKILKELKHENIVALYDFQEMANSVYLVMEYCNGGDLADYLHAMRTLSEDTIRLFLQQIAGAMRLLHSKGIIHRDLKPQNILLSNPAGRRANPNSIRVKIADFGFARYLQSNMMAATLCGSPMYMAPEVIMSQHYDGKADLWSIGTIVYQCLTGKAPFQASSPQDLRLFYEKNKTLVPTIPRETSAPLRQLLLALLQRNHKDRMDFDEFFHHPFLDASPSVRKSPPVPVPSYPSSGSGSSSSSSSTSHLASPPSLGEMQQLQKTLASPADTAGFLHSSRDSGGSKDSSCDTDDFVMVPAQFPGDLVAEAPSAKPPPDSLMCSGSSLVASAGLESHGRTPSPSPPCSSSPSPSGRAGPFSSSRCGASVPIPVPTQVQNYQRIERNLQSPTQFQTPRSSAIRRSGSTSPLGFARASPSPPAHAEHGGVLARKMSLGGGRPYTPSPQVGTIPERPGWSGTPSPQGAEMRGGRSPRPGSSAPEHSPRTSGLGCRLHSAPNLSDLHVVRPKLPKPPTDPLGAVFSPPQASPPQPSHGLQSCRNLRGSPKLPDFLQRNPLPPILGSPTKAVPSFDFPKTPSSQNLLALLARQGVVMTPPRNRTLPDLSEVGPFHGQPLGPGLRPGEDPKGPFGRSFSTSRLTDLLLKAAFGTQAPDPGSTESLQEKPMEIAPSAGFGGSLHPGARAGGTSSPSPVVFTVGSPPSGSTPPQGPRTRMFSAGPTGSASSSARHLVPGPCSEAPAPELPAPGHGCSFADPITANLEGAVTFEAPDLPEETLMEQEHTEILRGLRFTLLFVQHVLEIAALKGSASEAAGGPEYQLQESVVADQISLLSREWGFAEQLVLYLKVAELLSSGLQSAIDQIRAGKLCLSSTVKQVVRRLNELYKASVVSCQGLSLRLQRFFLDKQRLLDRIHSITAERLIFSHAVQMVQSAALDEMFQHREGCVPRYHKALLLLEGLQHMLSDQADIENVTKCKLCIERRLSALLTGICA

[4] = biological target: T4, panel of 374 wild-type kinases (Homo sapiens, UniProt P49336); conditions: read-out: % Enzyme Activity (relative to DMSO controls), CDK8/cyclin C
T4 construct: purchased Reaction Biology Corporation

[5] = biological target: T5, panel of 374 wild-type kinases (Homo sapiens, UniProt P22612); conditions: read-out: % Enzyme Activity (relative to DMSO controls), kinase PKAcg
T5 construct: purchased Reaction Biology Corporation

[6] = biological target: T6, panel of 374 wild-type kinases (Homo sapiens, UniProt O95835); conditions: read-out: % Enzyme Activity (relative to DMSO controls), LATS1
T6 construct: purchased Reaction Biology Corporation
T6 sequence (O95835 1-1130): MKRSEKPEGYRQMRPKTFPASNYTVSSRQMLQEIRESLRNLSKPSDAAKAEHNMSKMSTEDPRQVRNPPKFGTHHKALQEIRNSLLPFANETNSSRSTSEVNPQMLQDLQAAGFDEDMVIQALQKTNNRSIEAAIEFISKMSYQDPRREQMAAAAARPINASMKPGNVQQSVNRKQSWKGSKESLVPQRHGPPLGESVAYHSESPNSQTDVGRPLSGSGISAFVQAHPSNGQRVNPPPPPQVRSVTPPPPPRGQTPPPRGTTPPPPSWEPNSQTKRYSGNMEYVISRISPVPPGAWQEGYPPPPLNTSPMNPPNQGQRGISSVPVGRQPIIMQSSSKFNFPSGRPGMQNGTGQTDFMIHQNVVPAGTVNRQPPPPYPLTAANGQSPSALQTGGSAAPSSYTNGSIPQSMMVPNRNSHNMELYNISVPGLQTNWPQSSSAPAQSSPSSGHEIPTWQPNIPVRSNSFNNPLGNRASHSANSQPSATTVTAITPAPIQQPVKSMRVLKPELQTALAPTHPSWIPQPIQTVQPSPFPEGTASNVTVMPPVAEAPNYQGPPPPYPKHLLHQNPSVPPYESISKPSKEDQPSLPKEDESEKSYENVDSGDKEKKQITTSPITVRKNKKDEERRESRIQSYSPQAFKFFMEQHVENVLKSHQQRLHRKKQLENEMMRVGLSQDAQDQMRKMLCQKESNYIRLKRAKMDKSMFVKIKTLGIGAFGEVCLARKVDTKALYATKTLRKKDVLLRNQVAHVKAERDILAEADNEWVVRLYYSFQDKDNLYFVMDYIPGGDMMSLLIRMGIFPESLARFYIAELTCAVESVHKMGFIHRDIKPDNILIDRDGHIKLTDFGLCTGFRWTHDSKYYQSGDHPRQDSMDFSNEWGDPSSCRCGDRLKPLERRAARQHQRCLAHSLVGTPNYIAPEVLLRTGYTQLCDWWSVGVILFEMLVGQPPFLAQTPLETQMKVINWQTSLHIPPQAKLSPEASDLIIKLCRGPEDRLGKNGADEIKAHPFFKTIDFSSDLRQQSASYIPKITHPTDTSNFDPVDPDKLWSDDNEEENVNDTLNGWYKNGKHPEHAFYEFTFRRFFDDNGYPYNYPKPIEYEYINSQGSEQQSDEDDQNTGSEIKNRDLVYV

[7] = biological target: T7, panel of 374 wild-type kinases (Homo sapiens, UniProt Q8N4C8); conditions: read-out: % Enzyme Activity (relative to DMSO controls), MINK/MINK1
T7 construct: purchased Reaction Biology Corporation
T7 sequence (Q8N4C8 whole entry): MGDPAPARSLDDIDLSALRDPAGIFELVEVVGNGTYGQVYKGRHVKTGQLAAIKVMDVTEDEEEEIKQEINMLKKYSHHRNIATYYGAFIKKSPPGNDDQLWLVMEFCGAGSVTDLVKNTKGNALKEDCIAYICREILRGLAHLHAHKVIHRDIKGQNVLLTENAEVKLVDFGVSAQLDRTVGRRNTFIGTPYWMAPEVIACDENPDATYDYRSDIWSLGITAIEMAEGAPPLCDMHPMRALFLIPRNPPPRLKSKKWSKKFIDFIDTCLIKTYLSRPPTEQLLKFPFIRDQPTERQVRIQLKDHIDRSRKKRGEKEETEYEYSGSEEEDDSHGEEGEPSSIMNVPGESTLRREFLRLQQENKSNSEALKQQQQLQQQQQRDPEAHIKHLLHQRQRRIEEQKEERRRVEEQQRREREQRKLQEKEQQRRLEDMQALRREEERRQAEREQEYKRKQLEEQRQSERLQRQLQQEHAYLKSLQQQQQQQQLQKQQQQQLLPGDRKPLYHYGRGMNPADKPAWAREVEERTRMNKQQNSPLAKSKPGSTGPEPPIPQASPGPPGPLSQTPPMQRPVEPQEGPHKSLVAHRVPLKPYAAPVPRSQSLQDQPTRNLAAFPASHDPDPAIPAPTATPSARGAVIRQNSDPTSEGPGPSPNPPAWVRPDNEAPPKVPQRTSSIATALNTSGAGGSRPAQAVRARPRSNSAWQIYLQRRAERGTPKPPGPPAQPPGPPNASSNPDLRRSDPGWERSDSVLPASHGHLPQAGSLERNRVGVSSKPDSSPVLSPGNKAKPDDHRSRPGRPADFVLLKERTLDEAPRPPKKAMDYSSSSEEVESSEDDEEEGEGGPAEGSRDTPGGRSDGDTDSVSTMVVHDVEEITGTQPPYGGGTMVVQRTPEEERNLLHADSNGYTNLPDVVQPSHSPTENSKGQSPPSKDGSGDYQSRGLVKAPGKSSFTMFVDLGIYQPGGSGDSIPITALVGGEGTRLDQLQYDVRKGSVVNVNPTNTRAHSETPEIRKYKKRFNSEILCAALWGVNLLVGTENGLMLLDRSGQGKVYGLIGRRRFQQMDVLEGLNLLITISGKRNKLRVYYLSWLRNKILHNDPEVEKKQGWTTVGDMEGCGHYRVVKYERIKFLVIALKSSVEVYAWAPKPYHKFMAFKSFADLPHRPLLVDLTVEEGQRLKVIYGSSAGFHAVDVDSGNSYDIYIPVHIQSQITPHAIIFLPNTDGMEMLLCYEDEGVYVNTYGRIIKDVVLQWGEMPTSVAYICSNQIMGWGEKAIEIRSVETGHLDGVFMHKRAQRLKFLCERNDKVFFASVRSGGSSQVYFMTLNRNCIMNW

T2 sequence (O00238 14-502): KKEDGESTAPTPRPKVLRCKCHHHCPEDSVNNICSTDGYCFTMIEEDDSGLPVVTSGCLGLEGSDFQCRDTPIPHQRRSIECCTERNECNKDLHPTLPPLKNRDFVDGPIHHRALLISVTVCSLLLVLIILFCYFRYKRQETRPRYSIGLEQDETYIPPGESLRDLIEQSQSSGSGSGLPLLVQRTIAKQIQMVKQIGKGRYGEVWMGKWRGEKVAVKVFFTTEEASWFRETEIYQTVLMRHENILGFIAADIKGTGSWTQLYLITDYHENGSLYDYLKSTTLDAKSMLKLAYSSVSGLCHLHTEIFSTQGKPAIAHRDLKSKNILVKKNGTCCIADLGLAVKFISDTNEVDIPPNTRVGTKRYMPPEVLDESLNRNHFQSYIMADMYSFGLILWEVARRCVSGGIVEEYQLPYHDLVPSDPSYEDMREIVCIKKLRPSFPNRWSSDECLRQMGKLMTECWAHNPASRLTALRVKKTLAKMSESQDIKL
T5 sequence (P22612 whole entry): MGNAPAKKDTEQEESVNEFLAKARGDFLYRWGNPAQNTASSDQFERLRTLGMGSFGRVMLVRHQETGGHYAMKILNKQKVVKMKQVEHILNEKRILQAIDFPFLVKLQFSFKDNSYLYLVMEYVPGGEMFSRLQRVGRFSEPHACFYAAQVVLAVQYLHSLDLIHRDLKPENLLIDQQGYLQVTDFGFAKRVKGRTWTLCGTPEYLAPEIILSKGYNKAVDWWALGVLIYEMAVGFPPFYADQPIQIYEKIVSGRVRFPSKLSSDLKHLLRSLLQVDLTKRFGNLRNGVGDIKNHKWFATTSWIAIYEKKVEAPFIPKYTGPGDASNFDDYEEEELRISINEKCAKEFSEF
T1 sequence (P09619 33-1106): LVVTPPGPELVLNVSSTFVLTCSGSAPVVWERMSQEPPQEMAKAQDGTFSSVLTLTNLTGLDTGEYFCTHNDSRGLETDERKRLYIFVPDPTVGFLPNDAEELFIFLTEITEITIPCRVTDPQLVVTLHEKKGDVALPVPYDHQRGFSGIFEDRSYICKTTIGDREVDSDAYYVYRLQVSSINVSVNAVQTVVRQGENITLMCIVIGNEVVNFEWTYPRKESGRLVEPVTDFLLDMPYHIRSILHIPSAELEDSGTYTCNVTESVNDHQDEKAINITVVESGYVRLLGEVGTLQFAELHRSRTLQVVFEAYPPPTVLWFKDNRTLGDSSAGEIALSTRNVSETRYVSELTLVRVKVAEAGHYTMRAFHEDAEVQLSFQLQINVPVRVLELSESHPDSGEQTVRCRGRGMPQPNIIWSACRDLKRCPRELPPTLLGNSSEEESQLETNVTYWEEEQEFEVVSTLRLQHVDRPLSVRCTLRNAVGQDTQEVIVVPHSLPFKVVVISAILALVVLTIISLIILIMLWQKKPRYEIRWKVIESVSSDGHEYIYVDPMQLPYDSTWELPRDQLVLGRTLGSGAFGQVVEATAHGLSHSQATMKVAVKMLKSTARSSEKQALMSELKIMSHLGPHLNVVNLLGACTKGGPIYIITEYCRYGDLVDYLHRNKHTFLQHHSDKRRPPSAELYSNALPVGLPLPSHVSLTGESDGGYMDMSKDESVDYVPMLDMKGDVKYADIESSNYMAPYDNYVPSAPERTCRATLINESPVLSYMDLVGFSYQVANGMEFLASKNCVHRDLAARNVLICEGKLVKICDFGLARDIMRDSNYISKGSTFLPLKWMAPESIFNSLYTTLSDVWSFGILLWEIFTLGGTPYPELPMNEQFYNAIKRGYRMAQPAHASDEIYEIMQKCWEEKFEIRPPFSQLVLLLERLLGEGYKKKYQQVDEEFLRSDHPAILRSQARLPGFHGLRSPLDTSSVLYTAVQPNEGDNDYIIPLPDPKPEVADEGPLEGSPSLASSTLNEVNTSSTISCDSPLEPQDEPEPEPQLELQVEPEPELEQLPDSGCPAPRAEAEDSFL
T4 sequence (P49336 whole entry): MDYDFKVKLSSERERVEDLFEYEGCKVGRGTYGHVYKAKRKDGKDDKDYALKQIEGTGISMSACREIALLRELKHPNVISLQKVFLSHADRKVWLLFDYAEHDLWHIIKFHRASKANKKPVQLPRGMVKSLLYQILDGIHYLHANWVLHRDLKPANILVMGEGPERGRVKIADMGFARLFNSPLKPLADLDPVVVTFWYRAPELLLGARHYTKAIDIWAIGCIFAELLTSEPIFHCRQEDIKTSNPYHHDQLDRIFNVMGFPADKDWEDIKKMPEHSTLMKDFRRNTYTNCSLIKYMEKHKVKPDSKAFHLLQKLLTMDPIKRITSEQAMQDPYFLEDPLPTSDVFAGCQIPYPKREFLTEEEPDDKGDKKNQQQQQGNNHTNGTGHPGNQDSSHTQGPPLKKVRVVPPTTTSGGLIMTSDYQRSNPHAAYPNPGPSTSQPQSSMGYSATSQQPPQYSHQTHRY

| SMILES | remaining activity at 5 µM [1] [%] | remaining activity at 5 µM [2] [%] | remaining activity at 5 µM [3] [%] | remaining activity at 5 µM [4] [%] | remaining activity at 5 µM [5] [%] | remaining activity at 5 µM [6] [%] | remaining activity at 5 µM [7] [%] | remaining activity at 10 µM ([1]; 10 uM) [%] | remaining activity at 10 µM ([2]; 10 uM) [%] | remaining activity at 10 µM ([3]; 10 uM) [%] | remaining activity at 10 µM ([4]; 10 uM) [%] | remaining activity at 10 µM ([5]; 10 uM) [%] | remaining activity at 10 µM ([6]; 10 uM) [%] | remaining activity at 10 µM ([7]; 10 uM) [%] |
| --- | --- | --- | --- | --- | --- | --- | --- | --- | --- | --- | --- | --- | --- | --- |
| O=C(Nc1cnn(-c2csc(C(=O)NC3COC3)c2)c1)Nc1ccccc1Cl [Compound 17, 4-(4-(3-(2-chlorophenyl)ureido)-1H-pyrazol-1-yl)-N-(oxetan-3-yl)thiophene-2-carboxamide] | 107 | 109 | 134 | 101 | 104 | 106 | 79.4 | – | – | – | – | – | – | – |
| Cc1sc(C(=O)NC2COC2)cc1-n1cc(NC(=O)Nc2c(F)cccc2Cl)cn1 [Compound 27, 4-(4-(3-(2-chloro-6-fluorophenyl)ureido)-1H-pyrazol-1-yl)-5-methyl-N-(oxetan-3-yl)thiophene-2-carboxamide] | – | – | – | – | – | – | – | 97.9 | 104 | 77.3 | 92.7 | 99 | 97.2 | 102 |
| O=C(Nc1cnn(-c2csc(C(=O)NC3COC3)c2)c1)Nc1c(F)cccc1Cl [Compound 25, 4-(4-(3-(2-chloro-6-fluorophenyl)ureido)-1H-pyrazol-1-yl)-N-(oxetan-3-yl)thiophene-2-carboxamide] | 101 | 114 | 93.9 | 99 | 97.6 | 93.5 | 62.2 | – | – | – | – | – | – | – |
